Earlier results in patent US20230126271A1, “DEGRADER-ANTIBODY CONJUGATES AND METHODS OF USING SAME” (Anglex, Inc., priority 2020, published 2023).

How the values were obtained:
[1] = in vivo
[2] = in vivo; remark: listed apart in the source

| SMILES | patients who experienced heart attacks while being treated [1] | toxicity in the clinic [2] |
| --- | --- | --- |
| COc1ccc(/C=C\c2cc(OC)c(OC)c(OC)c2)cc1OP(=O)(O)O [CA4P, Combretastatin] | seven | – |
| CN(C)CC#Cc1ccc(OCCCc2sc(N3CCc4cccc(C(=O)Nc5nc6ccccc6s5)c4C3)nc2C(=O)O)c(F)c1 [A115463] | – | on-target and dose-limiting thrombocytopenia |
| CC1(C)CCC(c2ccc(Cl)cc2)=C(CN2CCN(c3ccc(C(=O)NS(=O)(=O)c4ccc(N[C@H](CCN5CCOCC5)CSc5ccccc5)c(S(=O)(=O)C(F)(F)F)c4)cc3)CC2)C1 [ABT 263] | – | on-target and dose-limiting thrombocytopenia |
